Columns and labels:
Stromelysin-1 = Stromelysin-1 (Homo sapiens, UniProt P08254); experiment: Inhibition of recombinant human matrix metalloprotease-3
[1] = target: Matrix metalloproteinase-9 (Homo sapiens, UniProt P14780); experiment: Inhibition of recombinant human matrix metalloprotease-9
[2] = target: Disintegrin and metalloproteinase domain-containing protein 17 (Homo sapiens, UniProt P78536); experiment: Inhibition of recombinant human TNF-alpha converting enzyme
Interstitial collagenase = target: T1, Interstitial collagenase (Homo sapiens, UniProt P03956); experiment: Inhibition of recombinant human matrix metalloprotease-1
T1 sequence (P03956 whole entry): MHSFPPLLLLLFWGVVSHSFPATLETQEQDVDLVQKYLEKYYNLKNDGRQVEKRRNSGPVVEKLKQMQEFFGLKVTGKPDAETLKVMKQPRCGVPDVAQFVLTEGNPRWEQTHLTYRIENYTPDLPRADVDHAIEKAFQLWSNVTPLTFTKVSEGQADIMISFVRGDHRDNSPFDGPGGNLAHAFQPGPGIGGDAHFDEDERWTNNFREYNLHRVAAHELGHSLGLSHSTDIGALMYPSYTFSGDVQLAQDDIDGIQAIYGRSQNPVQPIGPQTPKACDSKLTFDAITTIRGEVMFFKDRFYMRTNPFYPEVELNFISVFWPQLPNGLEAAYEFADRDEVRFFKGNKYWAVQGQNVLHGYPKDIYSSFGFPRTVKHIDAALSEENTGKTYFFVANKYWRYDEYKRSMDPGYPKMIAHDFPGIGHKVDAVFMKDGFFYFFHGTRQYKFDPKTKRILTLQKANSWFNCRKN

Sequence of Matrix metalloproteinase-9 (P14780 whole entry, the tested form may be a part): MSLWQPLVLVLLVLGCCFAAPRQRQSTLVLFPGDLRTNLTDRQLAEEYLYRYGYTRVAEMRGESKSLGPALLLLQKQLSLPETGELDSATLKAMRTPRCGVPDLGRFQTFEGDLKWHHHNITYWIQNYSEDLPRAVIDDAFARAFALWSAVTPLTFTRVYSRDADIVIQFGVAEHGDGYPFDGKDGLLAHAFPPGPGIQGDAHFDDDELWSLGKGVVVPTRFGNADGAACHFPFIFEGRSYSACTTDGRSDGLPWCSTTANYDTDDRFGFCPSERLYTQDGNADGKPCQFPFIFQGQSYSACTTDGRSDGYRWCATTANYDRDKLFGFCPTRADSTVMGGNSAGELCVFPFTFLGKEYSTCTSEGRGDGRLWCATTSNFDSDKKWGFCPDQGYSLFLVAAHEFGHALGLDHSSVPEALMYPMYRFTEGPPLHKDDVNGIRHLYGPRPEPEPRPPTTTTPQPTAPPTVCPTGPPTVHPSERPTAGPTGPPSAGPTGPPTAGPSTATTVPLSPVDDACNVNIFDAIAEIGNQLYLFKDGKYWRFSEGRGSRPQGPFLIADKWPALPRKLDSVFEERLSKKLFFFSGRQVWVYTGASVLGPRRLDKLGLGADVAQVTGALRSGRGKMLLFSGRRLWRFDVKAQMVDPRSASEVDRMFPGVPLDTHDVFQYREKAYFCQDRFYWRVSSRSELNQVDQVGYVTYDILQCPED
Sequence of Disintegrin and metalloproteinase domain-containing protein 17 (P78536 whole entry, the tested form may be a part): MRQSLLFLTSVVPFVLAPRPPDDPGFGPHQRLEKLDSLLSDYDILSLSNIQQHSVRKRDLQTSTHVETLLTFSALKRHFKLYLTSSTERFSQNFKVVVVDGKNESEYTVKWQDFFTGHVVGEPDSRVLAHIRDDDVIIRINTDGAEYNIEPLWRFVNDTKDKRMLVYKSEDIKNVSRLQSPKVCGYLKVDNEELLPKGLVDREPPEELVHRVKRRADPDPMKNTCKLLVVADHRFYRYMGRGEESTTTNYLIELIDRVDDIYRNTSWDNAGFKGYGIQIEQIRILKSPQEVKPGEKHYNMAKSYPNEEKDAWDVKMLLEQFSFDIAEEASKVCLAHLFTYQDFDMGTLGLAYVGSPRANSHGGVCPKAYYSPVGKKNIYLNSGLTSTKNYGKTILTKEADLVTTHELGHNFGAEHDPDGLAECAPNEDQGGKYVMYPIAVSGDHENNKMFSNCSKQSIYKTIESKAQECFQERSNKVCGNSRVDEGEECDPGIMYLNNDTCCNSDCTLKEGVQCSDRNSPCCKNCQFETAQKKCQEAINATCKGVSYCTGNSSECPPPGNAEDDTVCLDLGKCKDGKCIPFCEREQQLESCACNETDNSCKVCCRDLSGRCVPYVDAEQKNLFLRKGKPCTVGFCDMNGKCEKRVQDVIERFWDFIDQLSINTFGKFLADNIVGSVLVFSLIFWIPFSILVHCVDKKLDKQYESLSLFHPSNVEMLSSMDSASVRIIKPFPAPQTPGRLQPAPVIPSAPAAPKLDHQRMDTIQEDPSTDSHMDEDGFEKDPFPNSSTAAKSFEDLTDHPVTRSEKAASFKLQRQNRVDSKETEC
Sequence of Stromelysin-1 (P08254 whole entry): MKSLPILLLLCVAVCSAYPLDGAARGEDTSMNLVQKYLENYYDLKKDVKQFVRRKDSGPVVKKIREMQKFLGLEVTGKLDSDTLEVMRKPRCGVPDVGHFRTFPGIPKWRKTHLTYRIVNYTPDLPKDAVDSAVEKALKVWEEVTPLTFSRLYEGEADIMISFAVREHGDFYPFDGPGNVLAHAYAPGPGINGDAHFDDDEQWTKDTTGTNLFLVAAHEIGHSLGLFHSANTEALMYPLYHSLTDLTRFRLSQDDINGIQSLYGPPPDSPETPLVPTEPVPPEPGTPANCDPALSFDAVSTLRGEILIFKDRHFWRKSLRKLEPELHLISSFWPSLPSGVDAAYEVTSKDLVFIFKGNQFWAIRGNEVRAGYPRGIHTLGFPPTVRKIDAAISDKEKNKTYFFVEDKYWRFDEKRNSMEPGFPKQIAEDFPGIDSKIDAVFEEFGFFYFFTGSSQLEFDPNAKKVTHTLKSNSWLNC

Row | Structure (SMILES) | Ki (Stromelysin-1) [nM] | Ki [1] [nM] | Ki [2] [nM] | Ki (Interstitial collagenase) [nM]
1 | CC#CCOc1ccc(S(=O)(=O)N2C[C@H]3OC(C)(C)O[C@H]3[C@H](O)[C@@H]2C(=O)NO)cc1 | 29.6 | 77.8 | 0.57 | > 850
2 | CC#CCOc1ccc(S(=O)(=O)N2C[C@@H](O)[C@H]3OC(C)(C)O[C@@H]3[C@@H]2C(=O)NO)cc1 | 58.1 | 118 | 1.85 | > 850
3 | CC#CCOc1ccc(S(=O)(=O)N2C[C@@H](O)[C@@H](O)[C@H](OC)[C@@H]2C(=O)NO)cc1 | 0.43 | 12 | 1.85 | 90
4 | CC#CCOc1ccc(S(=O)(=O)N2C[C@H]3OC(C)(C)O[C@H]3[C@H](OC)[C@@H]2C(=O)NO)cc1 | 11.5 | 98.2 | 0.84 | 552
5 | CC#CCOc1ccc(S(=O)(=O)N2C[C@@H](O)[C@@H](O)[C@H](O)[C@@H]2C(=O)NO)cc1 | 3.3 | 14.2 | – | 128

Reference: ChEMBL document CHEMBL1147637, “Synthesis and biological activity of selective azasugar-based TACE inhibitors” (Bioorg Med Chem Lett, 2004)
